For orientation: EC50 means the concentration giving half of the maximal effect.

Among the data in US20080182859A1 (Curis, Inc., priority 2006, published 2008) are EC50 values, retold here.

Common to all, as to type: cell-based
In test [1] the test system is sonic hedgehog pathway. Kind of test: Hedgehog pathway Gli-luciferase reporter assay, TM3 cells. The note with it: TM3 mouse Leydig cells. In short, it runs like this:
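Agonist mode: cells carrying a luciferase gene downstream of the gli promoter received compound at 1–5 μM in 0.5% FBS for 24 h, optionally sensitised with 1–5 ng/ml octyl-modified hedgehog protein; luminescence gave % activation and EC50.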
For orientation: In a reporter assay the amount or activity of a reporter protein is the signal.

Test [2] concerns sonic hedgehog pathway. As to the kind of experiment: Hedgehog pathway Gli-luciferase reporter assay, S12 cells. The note with it: S12 mouse embryonic mesenchymal cells. From the text: Mouse (TM3: mouse Leydig cells; S12: mouse embryonic mesenchymal cells) and human (Daoy: human medulloblastoma cell; HepM: human embryonic palatal mesenchymal cell) cell lines are used to screen small molecules for their ability to modulate the activity of the sonic hedgehog pathway (Table 1, Table 2, and Table 3). Stable hedgehog pathway reporter cell lines are established by specific antibiotic selection following transfection of a reporter plasmid containing a luciferase gene located directly downstream from the gli promoter. Consequently, any observable changes in cellular luciferase activity may be attributed to changes in sonic hedgehog pathway activity in mouse and human cells, respectively, since gli is the major by-product of this pathway. To calculate activity, we generate an eleven point dose curve for each compound using 1:3 dilutions in 96 well assay plates. Each plate tested also contains low and high control to establish maximal pathway activation so to establish/compare a percentage activation of each tested compound (AMAX) on respective plates. Also we calculate EC50 values, or a concentration where the pathway will be exactly 50% activated, for each tested compound to determine potency. In these cell lines, compounds that register >20% AMAX values are considered active.
Stable hedgehog pathway reporter cell lines are established following specific antibiotic selection following transfection of a reporter plasmid In short, typically cells are plated in MicroTiter-plates at 10,000-20,000 cells per well, in growth media (containing 10%-20% FBS). After 48-72 hrs (HGL and DGL respectively) the media in the assay plates is switched to low-serum containing media (0.5% FBS). At that time compounds are added (at 1-5 μM) to the assay plates, in the presence or absence of hedgehog protein (octyl-modified version; 1-5 ng/ml). After another 24 hrs of incubation, the media from the assay plates is discarded and replaced with luciferase assay-mix. Subsequently, plates are incubated at RT for ˜15-30 mins and then read in a luminometer. [note: addition of the Hedgehog protein, although not critical, will sensitize the assay allowing the identification of weak actives].

Test [3] relates to sonic hedgehog pathway. As to the kind of experiment: Human hedgehog reporter assay HEPM-GliLuc (HGL). The note with it: HepM human embryonic palatal mesenchymal cells, Gli-luciferase reporter. In short, it runs like this:
(§1)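 Reporter cells stably selected after gli-luciferase plasmid transfection; test article dosed over 11 points (1:3). Read as luminescence after 24 h treatment in 0.5% serum; activity >20% AMAX versus plate controls deemed active.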

Test [4] deals with sonic hedgehog pathway. As to the kind of experiment: Human hedgehog reporter assay Daoy-GliLuc (DGL). The settings on record: Daoy human medulloblastoma cells, Gli-luciferase reporter. In short, it runs like this:
as §1

[5] abbreviates: read-out: Human Daoy (Gli-Luc) Avg. EC50.

Where a name gives a salt, the structure may show the parent alone.

Consider `CN[C@H]1CC[C@@H](N(Cc2cc(-c3ccc(C(=O)N(C)C)cc3)ccc2OC)C(=O)c2sc3ccccc3c2Cl)CC1` [317 (R19)], for which the 50% effective concentration (EC50) in the test with sonic hedgehog pathway [1], in the test with sonic hedgehog pathway [2] (read-out: S12 Avg. EC50) and in the test on sonic hedgehog pathway [3] was less than 0.05 µM throughout.
Consider `CN[C@H]1CC[C@@H](N(Cc2cc(-c3ccc(C(N)=O)cc3)ccc2OC)C(=O)c2sc3ccccc3c2Cl)CC1` [Compound 316, 3-Chloro-benzo[b]thiophene-2-carboxylic acid (4′-carbamoyl-4-methoxy-biphenyl-3-ylmethyl)-(4-methylamino-cyclohexyl)-amide hydrochloride], for which the EC50 with sonic hedgehog pathway [1], in the test with sonic hedgehog pathway [2] (read-out: S12 Avg. EC50) and with sonic hedgehog pathway [3] was less than 0.05 µM each time.
`CN[C@H]1CC[C@@H](N(Cc2cc(-c3ccc(N)nc3)ccc2OC)C(=O)c2sc3ccccc3c2Cl)CC1` [Compound 319, 3-Chloro-benzo[b]thiophene-2-carboxylic acid [5-(6-amino-pyridin-3-yl)-2-methoxy-benzyl]-(4-methylamino-cyclohexyl)-amide dihydrochloride]: the EC50 with sonic hedgehog pathway [1], in the test with sonic hedgehog pathway [2] (read-out: S12 Avg. EC50) and with sonic hedgehog pathway [3] was less than 0.05 µM in each case.
Take `CN[C@H]1CC[C@@H](N(Cc2cc(-c3ccncc3)ccc2O)C(=O)c2sc3c(F)ccc(F)c3c2Cl)CC1` [Compound 368, 3-Chloro-4,7-difluoro-benzo[b]thiophene-2-carboxylic acid (2-hydroxy-5-pyridin-4-yl-benzyl)-(4-methylamino-cyclohexyl)-amide dihydrochloride]: the EC50 in the test on sonic hedgehog pathway [4] (read-out: Daoy Avg. EC50), with sonic hedgehog pathway [2] (read-out: S12 Avg. EC50) and with sonic hedgehog pathway [3] was less than 0.05 µM each time.
Turning to `CN[C@H]1CC[C@@H](N(Cc2cc(-c3ccc(S(=O)(=O)N(C)C)cc3)ccc2OC)C(=O)c2sc3c(F)ccc(F)c3c2Cl)CC1` [Compound 391, 3-Chloro-4,7-difluoro-benzo[b]thiophene-2-carboxylic acid (4′-dimethylsulfamoyl-4-methoxy-biphenyl-3-ylmethyl)-(4-methylamino-cyclohexyl)-amide trifluoroacetate], the EC50 with sonic hedgehog pathway [4] (setting [5]) and with sonic hedgehog pathway [2] (read-out: Mouse S12 Avg. EC50) was less than 0.05 µM each time.
For `CN[C@H]1CC[C@@H](N(Cc2cc(-c3ccncc3)ccc2C)C(=O)c2sc3c(F)ccc(F)c3c2Cl)CC1` [Compound 392, 3-Chloro-4,7-difluoro-benzo[b]thiophene-2-carboxylic acid (4-methylamino-cyclohexyl)-(2-methyl-5-pyridin-4-yl-benzyl)-amide bis(trifluoroacetate)], the EC50 in the test on sonic hedgehog pathway [4] (setting [5]) and in the test with sonic hedgehog pathway [2] (read-out: Mouse S12 Avg. EC50) was less than 0.05 µM throughout.
For the molecule `C=Cc1ccc(-c2ccc(OC)c(CN(C(=O)c3sc4c(F)ccc(F)c4c3Cl)[C@H]3CC[C@@H](N)CC3)c2)cc1` [Compound 393, N-((1r,4r)-4-aminocyclohexyl)-3-chloro-4,7-difluoro-N-((4-methoxy-4′-vinylbiphenyl-3-yl)methyl)benzo[b]thiophene-2-carboxamide], the EC50 with sonic hedgehog pathway [4] (setting [5]) and in the test on sonic hedgehog pathway [2] (read-out: Mouse S12 Avg. EC50) was 0.05 to 0.25 µM throughout.
With `CN[C@H]1CC[C@@H](N(Cc2cc(OC)cc(-c3ccncc3)c2)C(=O)c2sc3c(F)ccc(F)c3c2Cl)CC1` [Compound 394, 3-Chloro-4,7-difluoro-benzo[b]thiophene-2-carboxylic acid (3-methoxy-5-pyridin-4-yl-benzyl)-(4-methylamino-cyclohexyl)-amide bis(trifluoroacetate)], the EC50 with sonic hedgehog pathway [4] (setting [5]) and with sonic hedgehog pathway [2] (read-out: Mouse S12 Avg. EC50) was less than 0.05 µM each time.
Turning to `CCc1ccc(-c2ccncc2)cc1CN(C(=O)c1sc2c(F)ccc(F)c2c1Cl)[C@H]1CC[C@@H](NC)CC1` [Compound 395, 3-Chloro-4,7-difluoro-benzo[b]thiophene-2-carboxylic acid (2-ethyl-5-pyridin-4-yl-benzyl)-(4-methylamino-cyclohexyl)-amide dihydrochloride], the EC50 in the test with sonic hedgehog pathway [4] (setting [5]) and in the test with sonic hedgehog pathway [2] (read-out: Mouse S12 Avg. EC50) was 0.05 to 0.25 µM each time.
As to `CN[C@H]1CC[C@H](N(Cc2cc(-c3ccccc3SC)ccc2OC)C(=O)c2sc3c(F)ccc(F)c3c2Cl)CC1` [Compound 408, 3-Chloro-4,7-difluoro-benzo[b]thiophene-2-carboxylic acid (4-methoxy-2′-methylsulfanyl-biphenyl-3-ylmethyl)-(4-methylamino-cyclohexyl)-amide hydrochloride], the EC50 in the test on sonic hedgehog pathway [4] (read-out: Daoy Avg. EC50) and with sonic hedgehog pathway [2] (read-out: S12 Avg. EC50) was 0.25 to 1 µM throughout.
For `CN[C@H]1CC[C@H](N(Cc2cc(-c3ccccc3[S+](C)[O-])ccc2OC)C(=O)c2sc3c(F)ccc(F)c3c2Cl)CC1` (some centres unmarked) [Compound 409, 3-Chloro-4,7-difluoro-benzo[b]thiophene-2-carboxylic acid (2′-methanesulfinyl-4-methoxy-biphenyl-3-ylmethyl)-(4-methylamino-cyclohexyl)-amide trifluoroacetate], the EC50 was in the range of 1 to 2.5 µM with sonic hedgehog pathway [4] (read-out: Daoy Avg. EC50) and 0.25 to 1 µM in the test on sonic hedgehog pathway [2] (read-out: S12 Avg. EC50).
For `COc1ccc(-c2cccnc2)cc1CN(C(=O)c1sc2cccc(F)c2c1Cl)[C@H]1CC[C@@H](N)CC1` [Compound 410, 3-Chloro-4-fluoro-benzo[b]thiophene-2-carboxylic acid (4-amino-cyclohexyl)-(2-methoxy-5-pyridin-3-yl-benzyl)-amide], in that order: less than 0.05 µM and less than 0.05 µM.
For `CN[C@H]1CC[C@H](N(Cc2cc(-c3ccccc3S(C)(=O)=O)ccc2OC)C(=O)c2sc3c(F)ccc(F)c3c2Cl)CC1` [Compound 411, 3-Chloro-4,7-difluoro-benzo[b]thiophene-2-carboxylic acid (2′-methanesulfonyl-4-methoxy-biphenyl-3-ylmethyl)-(4-methylamino-cyclohexyl)-amide hydrochloride], in that order: 1 to 2.5 µM and 0.25 to 1 µM.
As for `CN[C@H]1CC[C@H](N(Cc2cc(-c3cccc(S(C)(=O)=O)c3)ccc2OC)C(=O)c2sc3c(F)ccc(F)c3c2Cl)CC1` [Compound 412, 3-Chloro-4,7-difluoro-benzo[b]thiophene-2-carboxylic acid (3′-methanesulfonyl-4-methoxy-biphenyl-3-ylmethyl)-(4-methylamino-cyclohexyl)-amide hydrochloride], the EC50 in the test on sonic hedgehog pathway [4] (read-out: Daoy Avg. EC50) and in the test with sonic hedgehog pathway [2] (read-out: S12 Avg. EC50) was less than 0.05 µM in each case.
`CN[C@H]1CC[C@H](N(Cc2cc(-c3cccnc3OC)ccc2OC)C(=O)c2sc3cccc(F)c3c2Cl)CC1` [Compound 413]: the EC50 in the test on sonic hedgehog pathway [4] (read-out: Daoy Avg. EC50) was less than 0.05 µM; in the test with sonic hedgehog pathway [2] (read-out: S12 Avg. EC50), 0.05 to 0.25 µM.
The like results for `CCOc1cc(-c2ccc(OC)c(CN(C(=O)c3sc4c(F)ccc(F)c4c3Cl)[C@H]3CC[C@H](NC)CC3)c2)ccn1` [Compound 414] were, in that order, less than 0.05 µM and 0.05 to 0.25 µM.
For `CCOc1cc(-c2ccc(OC)c(CN(C(=O)c3sc4cccc(F)c4c3Cl)[C@H]3CC[C@H](NC)CC3)c2)ccn1` [Compound 415], in that order: 0.05 to 0.25 µM and 0.05 to 0.25 µM.
The like results for `COc1ccc(-c2cncc(F)c2)cc1CN(C(=O)c1sc2c(F)ccc(F)c2c1Cl)[C@H]1CC[C@@H](N)CC1` [Compound 416] were, in that order, 0.05 to 0.25 µM and less than 0.05 µM.
For `COc1ccc(-c2ccncc2F)cc1CN(C(=O)c1sc2c(F)ccc(F)c2c1Cl)[C@H]1CC[C@@H](N)CC1` [Compound 417], the EC50 in the test with sonic hedgehog pathway [4] (read-out: Daoy Avg. EC50) and with sonic hedgehog pathway [2] (read-out: S12 Avg. EC50) was less than 0.05 µM throughout.
For the molecule `COc1ccc(-c2cc[n+](C)cc2)cc1CN(C(=O)c1sc2c(F)ccc(F)c2c1Cl)[C@H]1CC[C@@H](N)CC1` [Compound 418], the EC50 was less than 0.05 µM in the test on sonic hedgehog pathway [4] (read-out: Daoy Avg. EC50) and 1 to 2.5 µM in the test on sonic hedgehog pathway [2] (read-out: S12 Avg. EC50).
